Assay: Dispersibility of FITC-DEX-encapsulated S/W with additives
Type: physicochemical
Conditions: additive 125 mg/mL in aqueous phase of S/O/W emulsion
Protocol: In order to reduce the particle size in S/W, the additives presented in Table 1 were added to the aqueous phase of the S/O/W emulsion during the preparation of S/W, and the dispersibility of each sample was observed.
(2) Cyclohexane (3.0 mL) was added to (1) to obtain an FITC-DEX-encapsulated S/O.
(3) A PC-ER-290-FITC-DEX complex solid was obtained by freeze drying the S/O/W emulsion prepared by agitating the solution of (2) (0.50 mL), and 5.0 mL of an aqueous solution (containing 2.5 mg/mL PC, and each additive at a concentration of 125 mg/mL) in a 12-mL vial container using a homogenizer.
(4) A 0.1 TE buffer (5.0 mL) was added to (3) to obtain an FITC-DEX-encapsulated S/W.

Row | SMILES | dispersibility / particle size of FITC-DEX-encapsulated S/W with additive
1 | OC[C@@H](O)[C@@H](O)[C@H](O)[C@@H](O)CO [sorbitol] | relatively small particle sizes
2 | OC[C@H]1O[C@H](O[C@H]2O[C@H](CO)[C@@H](O)[C@H](O)[C@H]2O)[C@H](O)[C@@H](O)[C@@H]1O [trehalose] | relatively small particle sizes
3 | OCC(O)CO [Glycerine] | relatively small particle sizes
